Data on 13 compounds can be found in publication PMC10002375, “Synthesis of 3-(2-Alkylthio-4-chloro-5-methylbenzenesulfonyl)-2-(1-phenyl-3-arylprop-2-enylideneamino)guanidine Derivatives with Pro-Apoptotic Activity against Cancer Cells” (International Journal of Molecular Sciences, 2023).

One assay relates to HaCaT cells. Briefly: MTT assay with non-cancerous HaCaT cell line. It counts as cell-based. The settings on record: 72 h. The method, then:
The important feature of new cytotoxic agents is their selective activity against cancer cells with a weak impact on the physiology of healthy cells. Determination of the selectivity of compounds 14–19 and 24–29 was done by MTT assay with the non-cancerous HaCaT cell line (Table 2). […] A similar effect was observed also for compound 26. […] Due to the excellent selectivity of compound 30 towards HCT-116 cells and at the same time high cytotoxicity towards this cell line (IC50 = 8 μM); derivative 30 may be a good hit compound for the search for chemotherapeutic agents for the treatment of colon cancer.
(§1) Cell viability was determined using the MTT (3-(4,5-dimethylthiazol-2-yl)-2,5-diphenyl-tetrazoliumbromide) assay. Stock solutions of the studied compounds were prepared in 100% DMSO. […] Cells were seeded in 96-well plates at a density of 5 × 10^3 cells/well and treated for 72 h with the examined compounds in the concentration range 1–100 μM (1, 10, 25, 50, and 100 μM). Following treatment, MTT (0.5 mg/mL) was added to the medium and cells were further incubated for 2 h at 37 °C. Cells were lysed with DMSO and the absorbance of the formazan solution was measured at 550 nm with a plate reader (1420 multilabel counter, Victor, Jügesheim, Germany). […] The experiment was performed in triplicate. Values are expressed as the mean ± SD of at least three independent experiments.

In the next assay the test system is MCF-7 (breast cancer). Briefly: MTT cell viability assay, MCF-7. As to conditions: for IC50: MTT, 72 h; for Selectivity Index MCF-7/HaCaT: MCF-7 versus HaCaT, from IC50 values. It counts as cell-based, human.
Text: The cytotoxic activity of the compounds 8–33 has been evaluated in MTT assays against three human cancer cell lines MCF-7 (breast cancer), HeLa (cervical cancer), and HCT-116 (colon cancer) and it was expressed as IC50 values in μM (Table 1).
(§2) All chemicals, if not stated otherwise, were obtained from Sigma-Aldrich (St. Louis, MO, USA). The MCF-7 cell line was purchased from Cell Lines Services (Eppelheim, Germany), the HeLa and HCT-116 cell lines were obtained from the Department of Microbiology, Tumor and Cell Biology, Karolinska Institute (Stockholm, Sweden). Cells were cultured in Dulbecco’s modified Eagle’s medium (DMEM) supplemented with 10% fetal bovine serum, 2 mM glutamine, 100 units/mL penicillin, and 100 μg/mL streptomycin. Cultures were maintained in a humidified atmosphere with 5% CO2 at 37 °C in an incubator (HeraCell, Heraeus, Langenselbold, Germany).
as §1

The test system of the next assay is HeLa (cervical cancer). Briefly: MTT cell viability assay, HeLa. It counts as cell-based, human. As to conditions: for IC50: Homo sapiens, HeLa, MTT, 72 h; for Selectivity Index HeLa/HaCaT: HeLa versus HaCaT, from IC50 values. The method, then: as §2, §1
The test system of another assay is HCT-116 (colon cancer). Briefly: MTT cell viability assay, HCT-116. The class given is cell-based, human. The settings on record: for IC50: Homo sapiens, HCT-116, MTT, 72 h; for Selectivity Index HCT-116/HaCaT: HCT-116 versus HaCaT, from IC50 values. The protocol:
as §2, §1

Regarding `N.N.[Cl][Pt][Cl]` [Cisplatin, reference compound], the IC50 with HaCaT cells amounted to 7.7 ± 0.2 µM; with MCF-7 (breast cancer), 3 ± 0.1 µM.
Regarding `Cc1cc(S(=O)(=O)NC(N)=NN=C(C=Cc2ccccc2)c2ccccc2)c(SCc2ccccc2)cc1Cl` [Compound 8], the IC50 amounted to 120 ± 8 µM in the assay with HeLa (cervical cancer); 130 ± 8 µM in the assay with MCF-7 (breast cancer) (Homo sapiens, MCF7); 167 ± 7 µM in the assay on HCT-116 (colon cancer).
Consider `Cc1cc(S(=O)(=O)NC(N)=NN=C(C=Cc2ccccc2O)c2ccccc2)c(SCc2ccccc2)cc1Cl` [Compound 9], for which the concentration for half-maximal inhibition (IC50) with HaCaT cells (Homo sapiens, HaCaT) is 35 ± 1 µM; in the assay on HeLa (cervical cancer) it was 17 ± 1 µM; with MCF-7 (breast cancer) (Homo sapiens, MCF7) it was 18 ± 1 µM; with HCT-116 (colon cancer), 11 ± 0.5 µM. The “Selectivity Index HeLa/HaCaT” value with HeLa (cervical cancer) amounted to 2.1. Also, the “Selectivity Index MCF-7/HaCaT” value in the assay with MCF-7 (breast cancer) is on record as 1.9. The “Selectivity Index HCT-116/HaCaT” value in the assay with HCT-116 (colon cancer) is 3.2.
In the case of `Cc1cc(S(=O)(=O)NC(N)=NN=C(C=Cc2ccc(O)cc2)c2ccccc2)c(SCc2ccccc2)cc1Cl` [Compound 10], the IC50 is 31 ± 1 µM with HaCaT cells (Homo sapiens, HaCaT); 15 ± 1 µM with HeLa (cervical cancer); 15 ± 1 µM in the assay with MCF-7 (breast cancer) (Homo sapiens, MCF7); 9 ± 0.1 µM with HCT-116 (colon cancer). The “Selectivity Index HeLa/HaCaT” value in the assay with HeLa (cervical cancer) is on record as 2.1. Besides, the “Selectivity Index MCF-7/HaCaT” value with MCF-7 (breast cancer) was found to be 2.1. In addition, in the assay on HCT-116 (colon cancer), the “Selectivity Index HCT-116/HaCaT” value worked out at 3.4.
For the compound `COc1ccc(C=CC(=NN=C(N)NS(=O)(=O)c2cc(C)c(Cl)cc2SCc2ccccc2)c2ccccc2)cc1` [Compound 11], the IC50 was found to be 330 ± 17 µM with MCF-7 (breast cancer) (Homo sapiens, MCF7) and 300 ± 21 µM with HCT-116 (colon cancer).
For the compound `Cc1cc(S(=O)(=O)NC(N)=NN=C(C=Cc2ccc(Cl)cc2)c2ccccc2)c(SCc2ccccc2)cc1Cl` [Compound 12], the IC50 in the assay on HeLa (cervical cancer) worked out at 190 ± 10 µM; with MCF-7 (breast cancer) (Homo sapiens, MCF7) it was 210 ± 13 µM; with HCT-116 (colon cancer), 113 ± 6 µM.
As for `Cc1cc(S(=O)(=O)NC(N)=NN=C(C=Cc2ccc([N+](=O)[O-])cc2)c2ccccc2)c(SCc2ccccc2)cc1Cl` [Compound 13], the concentration for half-maximal inhibition (IC50) in the assay with HeLa (cervical cancer) was 340 ± 31 µM; with MCF-7 (breast cancer) (Homo sapiens, MCF7), 370 ± 20 µM; in the assay with HCT-116 (colon cancer), 320 ± 10 µM.
Turning to `Cc1cc(S(=O)(=O)NC(N)=NN=C(C=Cc2ccccc2O)c2ccccc2)c(SCc2ccccc2C)cc1Cl` [Compound 14], the 50% inhibitory concentration (IC50) was determined as 31 ± 2 µM with HaCaT cells (Homo sapiens, HaCaT); 18 ± 1 µM in the assay on HeLa (cervical cancer); 13 ± 0.6 µM in the assay on MCF-7 (breast cancer) (Homo sapiens, MCF7); 9 ± 0.1 µM in the assay on HCT-116 (colon cancer). Moreover, in the assay with HeLa (cervical cancer), the “Selectivity Index HeLa/HaCaT” value is reported as 1.7. In addition, in the assay on MCF-7 (breast cancer), the “Selectivity Index MCF-7/HaCaT” value was found to be 2.4. In the assay with HCT-116 (colon cancer), the “Selectivity Index HCT-116/HaCaT” value is on record as 3.4.
For `Cc1cccc(CSc2cc(Cl)c(C)cc2S(=O)(=O)NC(N)=NN=C(C=Cc2ccccc2O)c2ccccc2)c1` [Compound 16], the IC50 stood at 41 ± 2 µM in the assay on HaCaT cells (Homo sapiens, HaCaT); 36 ± 2 µM in the assay on HeLa (cervical cancer); 20 ± 0.5 µM in the assay on MCF-7 (breast cancer) (Homo sapiens, MCF7); 17 ± 0.1 µM in the assay on HCT-116 (colon cancer). Moreover, the “Selectivity Index HeLa/HaCaT” value in the assay with HeLa (cervical cancer) was “ns”. In the assay with MCF-7 (breast cancer), the “Selectivity Index MCF-7/HaCaT” value was determined as 2.0. For the same compound, in the assay with HCT-116 (colon cancer), the “Selectivity Index HCT-116/HaCaT” value is 2.4.
On to `Cc1ccc(CSc2cc(Cl)c(C)cc2S(=O)(=O)NC(=N)N/N=C(/C=C/c2ccccc2)c2ccccc2)cc1` [Compound 18], for which the IC50 in the assay on HeLa (cervical cancer) came to 200 ± 10 µM; in the assay on MCF-7 (breast cancer) (Homo sapiens, MCF7) it was 260 ± 15 µM; in the assay on HCT-116 (colon cancer), 160 ± 5 µM.
Take `COc1ccc(C=CC(=NN=C(N)NS(=O)(=O)c2cc(C)c(Cl)cc2SCc2ccc(C)cc2)c2ccccc2)cc1` [Compound 21]: the concentration for half-maximal inhibition (IC50) with HeLa (cervical cancer) turned out to be 250 ± 12 µM; in the assay on MCF-7 (breast cancer) (Homo sapiens, MCF7) it was 150 ± 10 µM; in the assay with HCT-116 (colon cancer) it was 235 ± 5 µM.
Regarding `Cc1ccc(CSc2cc(Cl)c(C)cc2S(=O)(=O)NC(N)=NN=C(C=Cc2ccc([N+](=O)[O-])cc2)c2ccccc2)cc1` [Compound 23], the IC50 in the assay on HeLa (cervical cancer) came out at 170 ± 10 µM; with MCF-7 (breast cancer) (Homo sapiens, MCF7), 280 ± 17 µM.
As for `Cc1cc(S(=O)(=O)NC(N)=NN=C(C=Cc2ccc([N+](=O)[O-])cc2)c2ccccc2)c(SCc2ccc(Cl)cc2)cc1Cl` [Compound 33], the IC50 was 110 ± 3 µM in the assay on HeLa (cervical cancer); 220 ± 12 µM in the assay on MCF-7 (breast cancer) (Homo sapiens, MCF7); 450 ± 27 µM in the assay with HCT-116 (colon cancer).
